Results: patent publication US20260078103A1, “ISOQUINOLONES AS PI3K INHIBITORS” (OnKure, Inc., priority 2022, published 2026)
Read-outs that look alike come from different tables or passages of the source.

Columns and labels:
Format in all cases: cell-based
[1] = tested on: T47D cells expressing mutant PI3Ka (H1047R); experiment: In vitro cell proliferation, T47D cells (CellTiter-Glo); settings: inhibition of proliferation, read-out: Avg T-47D EC50
How it was run: (§1)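 1,500 cells/well seeded onto pre-stamped 10-pt dilution plates; T47D in RPMI + 10% FBS + insulin 0.2 units/mL, SKBR3 in McCoys 5a + 10% FBS. 72 h, 37 °C, 5% CO2. CTG readout. 0% = 0.1% DMSO, 100% = 10 uM Alpelisib; sigmoidal fit gives EC50.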

[2] = tested on: SKBR3 cells express WT PI3Ka; experiment: In vitro cell proliferation, SKBR3 cells (CellTiter-Glo); settings: inhibition of proliferation
How it was run: as §1

[3] = tested on: phosphorylation of AKT (pAKT) in T47D cells expressing mutant PI3Ka (H1047R); experiment: In vitro cell pAKT (Ser473) HTRF, T47D cells
How it was run: (§2)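 Cells seeded on plates pre-stamped with 10-point compound dilutions, then grown 6 h at 37 °C (T47D in RPMI/10% FBS/insulin; SKBR3 in McCoy's 5a/10% FBS). Lysates read for pAKT Ser473 by HTRF after overnight antibody incubation. Inhibition normalised to 0.1% DMSO and 10 uM alpelisib; IC50 by four-parameter fit.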

[4] = tested on: phosphorylation of AKT (pAKT) in SKBR3 cells express WT PI3Ka; experiment: In vitro cell pAKT (Ser473) HTRF, SKBR3 cells
How it was run: as §2

[5] = Homo sapiens, T47D, 6 h, cellular pAKT, T47D cells, mutant PI3Ka (H1047R), 6 hours, read-out: Avg T-47D IC50
[6] = Homo sapiens, SK-BR-3, 6 h, cellular pAKT
[7] = cellular pAKT, T47D cells, mutant PI3Ka (H1047R), 6 hours, read-out: Avg T-47D IC50

SMILES | EC50 ([1]; Homo sapiens, T47D, 72 h) | EC50 ([2]; Homo sapiens, SK-BR-3, 72 h) | IC50 [3, 5] | IC50 [4, 6] | EC50 ([1]; 72 hours) | EC50 ([2]; 72 hours) | IC50 [3, 7] | IC50 ([4]; cellular pAKT, 6 hours) | IC50 ([3]; Homo sapiens, T47D, 6 h, read-out: Avg T-47D IC50, cellular pAKT, T47D cells, mutant PI3Ka (H1047R), 6 hours) | IC50 ([4]; Homo sapiens, SK-BR-3, cellular pAKT, 6 hours)
Cc1cnc(-c2cc3c([C@@H](C)Nc4ccccc4C(=O)O)cc(F)cc3c(=O)n2C)s1 [Example 504] | 1 to 500 nM | > 15000 nM | 1 to 500 nM | > 15000 nM | – | – | – | – | – | –
Cc1csc(N2CCN(c3cc4c([C@@H](C)Nc5ccccc5C(=O)O)cc(F)cc4c(=O)n3C)CC2)n1 [Example 453] | 1 to 500 nM | 2000 to 15000 nM | 1 to 500 nM | > 15000 nM | – | – | – | – | – | –
Cc1cc(C(C)Nc2ccccc2C(=O)O)c2cc(N3CC4CCC(C4)C3)n(C)c(=O)c2c1 (single isomer, unassigned) [Example 11, 2-((1-(3-(3-azabicyclo[3.2.1]octan-3-yl)-2,7-dimethyl-1-oxo-1,2-dihydroisoquinolin-5-yl)ethyl)amino)benzoic acid] | – | – | – | – | 1 to 500 nM | 2000 to 15000 nM | 1 to 500 nM | 2000 to 15000 nM | – | –
C[C@@H](Nc1cccc(F)c1C(=O)O)c1cc(F)cc2c(=O)n(C)c(N3CC(C(F)(F)F)C3)cc12 [Example 413] | – | – | – | – | 2000 to 15000 nM | > 15000 nM | 2000 to 15000 nM | > 15000 nM | – | –
Cc1cc(C(C)Nc2ccccc2C(=O)O)c2cc(N3CCC(c4ccccc4)C3)n(C)c(=O)c2c1 (mixture of isomers) [Example 60] | – | – | – | – | 500 to 2000 nM | > 15000 nM | 1 to 500 nM | > 15000 nM | – | –
Cc1cc([C@@H](C)Nc2ccccc2C(=O)O)c2cc(N3CCN(C)C(C(F)(F)F)C3)n(C)c(=O)c2c1 (single isomer, unassigned) [Example 301] | 1 to 500 nM | > 15000 nM | 1 to 500 nM | > 15000 nM | – | – | – | – | – | –
Cc1cc(C(C)Nc2ccccc2C(=O)O)c2cc(N3CC(Cl)C3)n(C)c(=O)c2c1 (centres unmarked) [Example 55] | 500 to 2000 nM | > 15000 nM | 1 to 500 nM | > 15000 nM | – | – | – | – | – | –
Cc1cc([C@@H](C)Nc2ccccc2C(=O)O)c2cc(-c3ccc(OCC(F)F)nc3)n(C)c(=O)c2c1 [Example 201] | 1 to 500 nM | > 15000 nM | 1 to 500 nM | > 15000 nM | – | – | – | – | – | –
C[C@@H](Nc1cccc(F)c1C(=O)O)c1cc(F)cc2c(=O)n(C)c(C3CC3(F)F)cc12 (single isomer, unassigned) [Example 479] | – | > 15000 nM | – | > 15000 nM | 2000 to 15000 nM | – | 2000 to 15000 nM | – | – | –
Cc1cc([C@@H](C)Nc2cccc(F)c2C(=O)O)c2cc(C3CC3(F)F)n(C)c(=O)c2c1 (single isomer, unassigned) [Example 420] | – | > 15000 nM | – | > 15000 nM | 2000 to 15000 nM | – | 2000 to 15000 nM | – | – | –
Cc1cc([C@@H](C)Nc2ccccc2C(=O)O)c2cc(-c3cnc(C(F)F)nc3)n(C)c(=O)c2c1 [Example 341] | 1 to 500 nM | > 15000 nM | 1 to 500 nM | > 15000 nM | – | – | – | – | – | –
Cc1cc(C(C)Nc2ccccc2C(=O)O)c2cc(N3CC(Cl)C3)n(C)c(=O)c2c1 (single isomer, unassigned) [Example 78] | – | > 15000 nM | – | > 15000 nM | 2000 to 15000 nM | – | > 15000 nM | – | – | –
Cc1cc([C@@H](C)Nc2cccc(F)c2C(=O)O)c2cc(N3CCN(c4ccc(C)nc4C)CC3)n(C)c(=O)c2c1 [Example 343] | 1 to 500 nM | 2000 to 15000 nM | 1 to 500 nM | 2000 to 15000 nM | – | – | – | – | – | –
Cc1cc([C@@H](C)Nc2ccccc2C(=O)O)c2cc(N3CC4CC(C3)N4CC(F)(F)F)n(C)c(=O)c2c1 [Example 207] | 1 to 500 nM | > 15000 nM | 1 to 500 nM | > 15000 nM | – | – | – | – | – | –
Cc1cc([C@@H](C)Nc2cccc(F)c2C(=O)O)c2cc(-c3cnc(C(C)C)nc3)n(C)c(=O)c2c1 [Example 319] | 1 to 500 nM | > 15000 nM | 1 to 500 nM | > 15000 nM | – | – | – | – | – | –
C[C@@H](Nc1ccccc1C(=O)O)c1cc(F)cc2c(=O)n(C)c(C3C[C@@H]3C3CC3)cc12 (single isomer, unassigned) [Example 449] | 1 to 500 nM | > 15000 nM | 1 to 500 nM | > 15000 nM | – | – | – | – | – | –

SMILES | EC50 ([1]; Homo sapiens, T47D, 72 h) | EC50 ([2]; Homo sapiens, SK-BR-3, 72 h) | IC50 [3, 5] | IC50 [4, 6] | EC50 ([1]; 72 hours) | EC50 ([2]; 72 hours) | IC50 [3, 7] | IC50 ([4]; cellular pAKT, 6 hours) | IC50 ([3]; Homo sapiens, T47D, 6 h, read-out: Avg T-47D IC50, cellular pAKT, T47D cells, mutant PI3Ka (H1047R), 6 hours) | IC50 ([4]; Homo sapiens, SK-BR-3, cellular pAKT, 6 hours)
C[C@@H](Nc1ccccc1C(=O)O)c1cc(F)cc2c(=O)n(C)c(-c3ccc(COC(F)(F)F)nc3)cc12 [Example 540] | 1 to 500 nM | > 15000 nM | 1 to 500 nM | > 15000 nM | – | – | – | – | – | –
Cc1cc([C@@H](C)Nc2ccccc2C(=O)O)c2cc(-c3cnc(C(C)(F)F)cn3)n(C)c(=O)c2c1 [Example 395] | – | – | – | – | 1 to 500 nM | > 15000 nM | 1 to 500 nM | > 15000 nM | – | –
CCOc1ncc(-c2c(F)c3c([C@@H](C)Nc4ccccc4C(=O)O)cc(C)cc3c(=O)n2C)s1 [Example 536] | 1 to 500 nM | > 15000 nM | 1 to 500 nM | > 15000 nM | – | – | – | – | – | –
Cc1cc(C(C)Nc2ccccc2C(=O)O)c2cc(N3CCN(C(=O)CC(C)C)CC3)n(C)c(=O)c2c1 (single isomer, unassigned) [Example 32, 2-((1-(2,7-dimethyl-3-(4-(3-methylbutanoyl)piperazin-1-yl)-1-oxo-1,2-dihydroisoquinolin-5-yl)ethyl)amino)benzoic acid] | – | > 15000 nM | – | > 15000 nM | > 15000 nM | – | > 15000 nM | – | – | –
Cc1cc(C(C)Nc2ccccc2C(=O)O)c2cc(N3C[C@@H]4[C@@H](C#N)[C@@H]4C3)n(C)c(=O)c2c1 (stereo partly drawn) [Example 14, 2-((1-(3-((1R,5S,6r)-6-cyano-3-azabicyclo[3.1.0]hexan-3-yl)-2,7-dimethyl-1-oxo-1,2-dihydroisoquinolin-5-yl)ethyl)amino)benzoic acid] | – | > 15000 nM | – | > 15000 nM | 1 to 500 nM | – | 1 to 500 nM | – | – | –
Cc1cc(C(C)Nc2ccccc2C(=O)O)c2cc(C#Cc3cccc(C#N)c3)n(C)c(=O)c2c1 (centres unmarked) [Example 159] | – | – | – | – | 2000 to 15000 nM | > 15000 nM | 500 to 2000 nM | > 15000 nM | – | –
Cc1cc([C@@H](C)Nc2ccccc2C(=O)O)c2cc(SCc3ccccc3)n(C)c(=O)c2c1 [Example 34, (R)-2-((1-(3-(benzylthio)-2,7-dimethyl-1-oxo-1,2-dihydroisoquinolin-5-yl)ethyl)amino)benzoic acid] | 1 to 500 nM | > 15000 nM | – | – | – | – | – | – | 1 to 500 nM | > 15000 nM
C#Cc1ccc(N[C@H](C)c2cc(C)cc3c(=O)n(C)c(-c4cnc(C(F)(F)F)nc4)cc23)c(C(=O)O)n1 [Example 375] | – | – | – | – | 1 to 500 nM | > 15000 nM | 1 to 500 nM | > 15000 nM | – | –
Cc1cc(C(C)Nc2ccc(Cl)nc2C(=O)O)c2cc(N3Cc4ccc(F)cc4C3)n(C)c(=O)c2c1 (single isomer, unassigned) [Example 128] | – | – | – | – | 1 to 500 nM | 2000 to 15000 nM | 1 to 500 nM | 2000 to 15000 nM | – | –
Cc1cc(C(C)Nc2ccccc2C(=O)O)c2cc(N3CC4CCC(C4)C3)n(C)c(=O)c2c1 (single isomer, unassigned) [Example 10, 2-((1-(3-(3-azabicyclo[3.2.1]octan-3-yl)-2,7-dimethyl-1-oxo-1,2-dihydroisoquinolin-5-yl)ethyl)amino)benzoic acid] | – | 2000 to 15000 nM | – | – | 2000 to 15000 nM | – | > 15000 nM | > 15000 nM | – | –
Cc1cc([C@@H](C)Nc2ccccc2C(=O)O)c2cc(-c3cnc(C(F)F)c(F)c3)n(C)c(=O)c2c1 [Example 290] | 1 to 500 nM | > 15000 nM | 1 to 500 nM | > 15000 nM | – | – | – | – | – | –
C[C@@H](Nc1ccccc1C(=O)O)c1cc(F)cc2c(=O)n(C)c(Br)cc12 [Example 555] | 2000 to 15000 nM | > 15000 nM | 500 to 2000 nM | > 15000 nM | – | – | – | – | – | –
Cc1cc(C(C)Nc2ccccc2C(=O)O)c2cc(-c3cc4ccc(F)cc4[nH]3)n(C)c(=O)c2c1 (centres unmarked) [Example 75] | 500 to 2000 nM | > 15000 nM | 1 to 500 nM | > 15000 nM | – | – | – | – | – | –
Cc1ccc(N[C@H](C)c2cc(F)cc3c(=O)n(C)c(C4CC4C4CC4)cc23)c(C(=O)O)n1 (stereo in doubt) [Example 45, 3-(((R)-1-(3-(trans-[1,1′-bi(cyclopropan)]-2-yl)-7-fluoro-2-methyl-1-oxo-1,2-dihydroisoquinolin-5-yl)ethyl)amino)-6-methylpicolinic acid] | – | – | – | – | 2000 to 15000 nM | > 15000 nM | 500 to 2000 nM | > 15000 nM | – | –
C[C@@H](Nc1ccccc1C(=O)O)c1cc(F)cc2c(=O)n(C)c(C3C[C@@H]3CF)c(F)c12 (single isomer, unassigned) [Example 577] | 1 to 500 nM | > 15000 nM | 1 to 500 nM | > 15000 nM | – | – | – | – | – | –
Cc1cc(C(CF)Nc2ccccc2C(=O)O)c2cc(N3CCN(CC(F)(F)F)CC3)n(C)c(=O)c2c1 (single isomer, unassigned) [Example 38, 2-((1-(2,7-dimethyl-1-oxo-3-(4-(2,2,2-trifluoroethyl)piperazin-1-yl)-1,2-dihydroisoquinolin-5-yl)-2-fluoroethyl)amino)benzoic acid] | – | – | – | – | 1 to 500 nM | > 15000 nM | 1 to 500 nM | > 15000 nM | – | –
